The values below come from ChEMBL document CHEMBL4818998, “Melatonin derivatives combat with inflammation-related cancer by targeting the Main Culprit STAT3” (Eur J Med Chem, 2021).

Molecules are shown by their SMILES.

For one test, the system named is MGC-803. Briefly: Antiproliferative activity against human MGC-803 cells assessed as inhibition of cell proliferation measured after 72 hrs by MTT assay. The note with it: MGC-803, 72 h. The format is functional, cell-based.
The test system of test [1] is HCT-116. Briefly: Antiproliferative activity against human HCT-116 cells assessed as inhibition of cell proliferation measured after 72 hrs by MTT assay. The format is functional, cell-based. The note with it: HCT-116, 72 h.
The test system of a further test is MCF7. Kind of test: Antiproliferative activity against human MCF7 cells assessed as inhibition of cell proliferation measured after 72 hrs by MTT assay. The format is functional, cell-based. The note with it: MCF7, 72 h.
The test system of another test is HGC-27. Kind of test: Antiproliferative activity against human HGC-27 cells assessed as inhibition of cell proliferation measured after 72 hrs by MTT assay. The format is functional, cell-based. The note with it: HGC-27, 72 h.
For a further test, the system named is HepG2. Kind of test: Antiproliferative activity against human HepG2 cells assessed as inhibition of cell proliferation measured after 72 hrs by MTT assay. The format is functional, cell-based. The note with it: HepG2, 72 h.
A further test concerns A549. Kind of test: Antiproliferative activity against human A549 cells assessed as inhibition of cell proliferation measured after 72 hrs by MTT assay. It counts as functional, cell-based. The note with it: A549, 72 h.
For a further test, the system named is SGC-7901. Kind of test: Antiproliferative activity against human SGC-7901 cells assessed as inhibition of cell proliferation measured after 72 hrs by MTT assay. The note with it: SGC-7901, 72 h. It counts as functional, cell-based.
The subject of a further test is AGS. Briefly: Antiproliferative activity against human AGS cells assessed as inhibition of cell proliferation measured after 72 hrs by MTT assay. The format is functional, cell-based.
For test [2], the system named is HCT-116. Kind of test: Induction of apoptosis in human HCT-116 cells assessed as late apoptotic cells at 20 uM measured after 48 hrs by Annexin V-FITC/PI staining based flow cytometry (reference value: 1.42%). The format is functional.
Test [3] has as its system HCT-116. Kind of test: Induction of apoptosis in human HCT-116 cells assessed as early apoptotic cells at 20 uM measured after 48 hrs by Annexin V-FITC/PI staining based flow cytometry (reference value: 2.14%). The format is functional.
Test [4] relates to HCT-116. Kind of test: Induction of apoptosis in human HCT-116 cells assessed as necrotic cells at 20 uM measured after 48 hrs by Annexin V-FITC/PI staining based flow cytometry (reference value: 1.5%). It counts as functional.
The subject of test [5] is HCT-116. Briefly: Induction of apoptosis in human HCT-116 cells assessed as viable cells at 20 uM measured after 48 hrs by Annexin V-FITC/PI staining based flow cytometry (reference value: 94.9%). The format is functional. The note with it: read-out: Activity.

As for `CN(c1ccccc1)c1ccccc1C(=O)NCCc1c[nH]c2ccccc12`, the half-inhibitory concentration (IC50) is 11.1 µM in the test on MGC-803; 17.2 µM with HCT-116 [1]; 19.6 µM in the test with MCF7; over 30 µM in the test on HGC-27; 21.3 µM in the test with HepG2; over 30 µM with A549. In addition, the half-inhibitory concentration (IC50) with SGC-7901 is over 30 µM; in the test on AGS, 14.7 µM.
For `O=C(NCCc1c[nH]c2ccccc12)c1ccccc1NC1CCCCC1`, the IC50 in the test with MGC-803 is over 30 µM; with HCT-116 [1] it was over 30 µM; in the test with MCF7, over 30 µM; in the test with HGC-27, 26.7 µM; with HepG2 it was 28.6 µM; in the test with A549 it was over 30 µM. Moreover, the IC50 in the test with SGC-7901 and in the test on AGS was over 30 µM each time.
Take `CN(C)c1ccccc1C(=O)NCCc1c[nH]c2ccccc12`: the concentration for half-maximal inhibition (IC50) is over 30 µM with MGC-803; 16.6 µM with HCT-116 [1]; over 30 µM with MCF7; over 30 µM with HGC-27; over 30 µM in the test on HepG2; over 30 µM in the test on A549. Moreover, the IC50 was over 30 µM in the test with SGC-7901 and 22.6 µM with AGS.
With `O=C(NCCc1c[nH]c2ccccc12)c1ccccc1NCCCCO`, the half-inhibitory concentration (IC50) with MGC-803, in the test on HCT-116 [1], with MCF7, with HGC-27, in the test with HepG2 and in the test with A549 was over 30 µM throughout. Moreover, the concentration for half-maximal inhibition (IC50) in the test on SGC-7901 and in the test on AGS was over 30 µM in each case.
Consider `COc1ccc2[nH]cc(CCNC(=O)c3ccccc3Nc3ccccc3)c2c1`, for which the IC50 is 12.8 µM in the test with MGC-803; 24.7 µM in the test with HCT-116 [1]; 29 µM in the test with MCF7; over 30 µM in the test with HGC-27; over 30 µM in the test with HepG2; over 30 µM with A549. Further, the concentration for half-maximal inhibition (IC50) with SGC-7901 and in the test with AGS was over 30 µM throughout.
`COc1ccc(CCNc2ccccc2C(=O)NCCc2c[nH]c3ccccc23)cc1OC`: the IC50 in the test with MGC-803, in the test on HCT-116 [1], with MCF7, in the test on HGC-27, with HepG2 and in the test on A549 was over 30 µM in each case. For the same compound, the IC50 with SGC-7901 and in the test with AGS was over 30 µM each time.
On to `Cc1cccc(Nc2ccccc2C(=O)NCCc2c[nH]c3ccc(O)cc23)c1C`, for which the half-maximal inhibitory concentration (IC50) with MGC-803 was 16.5 µM; in the test on HCT-116 [1], 22.2 µM; in the test on MCF7, 25.3 µM; with HGC-27, 27 µM; in the test with HepG2 it was 17 µM; in the test with A549, over 30 µM. The half-inhibitory concentration (IC50) in the test on SGC-7901 was over 30 µM; in the test with AGS, 8.97 µM.
In the case of `O=C(NCCc1c[nH]c2ccccc12)c1ccccc1NC1CC1`, the IC50 is over 30 µM with MGC-803; over 30 µM in the test on HCT-116 [1]; over 30 µM in the test with MCF7; 28.3 µM with HGC-27; 28.4 µM in the test with HepG2; over 30 µM in the test on A549. The half-inhibitory concentration (IC50) with SGC-7901 and in the test on AGS was over 30 µM each time.
For `O=C(NCCc1c[nH]c2ccccc12)c1ccccc1NC1CCCC1`, the IC50 in the test on MGC-803 is over 30 µM; in the test with HCT-116 [1], over 30 µM; in the test with MCF7, over 30 µM; in the test on HGC-27, 19.3 µM; in the test with HepG2 it was 28.8 µM; in the test on A549, over 30 µM. For the same compound, the IC50 in the test with SGC-7901 and with AGS was over 30 µM in each case.
For the compound `COc1ccc2[nH]cc(CCNC(=O)c3ccccc3Nc3cccc(Cl)c3C)c2c1`, the IC50 was determined as 9.8 µM in the test with MGC-803; 20.4 µM in the test on HCT-116 [1]; 25.3 µM with MCF7; 19.9 µM in the test with HGC-27; 21.9 µM in the test on HepG2; 17.8 µM with A549. The results for the IC50 in the test on SGC-7901 and in the test on AGS were 27.9 µM and 16 µM, respectively.
As for `Cc1ccc(S(=O)(=O)Nc2ccccc2C(=O)NCCc2c[nH]c3ccccc23)cc1`, the IC50 in the test on MGC-803, in the test on HCT-116 [1], in the test with MCF7, in the test on HGC-27, in the test with HepG2 and in the test with A549 was over 30 µM in each case. The concentration for half-maximal inhibition (IC50) in the test on SGC-7901 and in the test with AGS was over 30 µM in each case.
Take `CNc1ccccc1C(=O)NCCc1c[nH]c2ccccc12`: the IC50 with MGC-803, in the test with HCT-116 [1], in the test on MCF7, with HGC-27, with HepG2 and in the test on A549 was over 30 µM in each case. The IC50 with SGC-7901 and in the test on AGS was over 30 µM throughout.
`O=C(NCCc1c[nH]c2ccccc12)c1ccccc1NCc1ccccc1`: the half-maximal inhibitory concentration (IC50) was over 30 µM with MGC-803; over 30 µM in the test with HCT-116 [1]; over 30 µM with MCF7; 19.9 µM in the test with HGC-27; over 30 µM in the test on HepG2; over 30 µM in the test with A549. In addition, the half-maximal inhibitory concentration (IC50) with SGC-7901 and with AGS was over 30 µM in each case.
As to `Cc1cccc(Nc2ccccc2C(=O)NCCc2c[nH]c3ccccc23)c1C`, the IC50 in the test on MGC-803 is over 30 µM; in the test on HCT-116 [1], 14.4 µM; with MCF7, over 30 µM; with HGC-27, over 30 µM; with HepG2 it was 21.7 µM; in the test on A549, over 30 µM. Further, the IC50 in the test on SGC-7901 was over 30 µM; in the test on AGS it was 16.6 µM.
`O=c1[nH]cc(F)c(=O)[nH]1` [FLUOROURACIL]: the IC50 with MGC-803 was 29.2 µM; with HCT-116 [1], 6.1 µM; in the test with MCF7 it was 13.2 µM; with HGC-27, over 30 µM; in the test on HepG2, over 30 µM; with A549, over 30 µM. Further, the IC50 in the test on SGC-7901 is over 30 µM; in the test with AGS it was 11 µM. Further, the Activity is given as 10.4% with HCT-116 [2], 5.54% in the test on HCT-116 [3] and 2.69% with HCT-116 [4]. For the same compound, in the test with HCT-116 [5], the viability at 20 µM is 81.3%.
As to `COc1ccc2[nH]cc(CCNC(C)=O)c2c1` [MELATONIN], the IC50 with MGC-803, with HCT-116 [1], in the test with MCF7, in the test with HGC-27, in the test with HepG2 and in the test on A549 was over 30 µM in each case. For the same compound, the concentration for half-maximal inhibition (IC50) with SGC-7901 and in the test on AGS was over 30 µM each time.
